The source of these data is patent US7576128B2 (priority 2004, dated 2009).

For assay [1] the following is noted: after 7 years of treatment; cited from earlier work.
For assay [2], the target named is T1, androgen receptor (Homo sapiens, UniProt P10275).
T1 sequence (P10275 1-920 Q868H): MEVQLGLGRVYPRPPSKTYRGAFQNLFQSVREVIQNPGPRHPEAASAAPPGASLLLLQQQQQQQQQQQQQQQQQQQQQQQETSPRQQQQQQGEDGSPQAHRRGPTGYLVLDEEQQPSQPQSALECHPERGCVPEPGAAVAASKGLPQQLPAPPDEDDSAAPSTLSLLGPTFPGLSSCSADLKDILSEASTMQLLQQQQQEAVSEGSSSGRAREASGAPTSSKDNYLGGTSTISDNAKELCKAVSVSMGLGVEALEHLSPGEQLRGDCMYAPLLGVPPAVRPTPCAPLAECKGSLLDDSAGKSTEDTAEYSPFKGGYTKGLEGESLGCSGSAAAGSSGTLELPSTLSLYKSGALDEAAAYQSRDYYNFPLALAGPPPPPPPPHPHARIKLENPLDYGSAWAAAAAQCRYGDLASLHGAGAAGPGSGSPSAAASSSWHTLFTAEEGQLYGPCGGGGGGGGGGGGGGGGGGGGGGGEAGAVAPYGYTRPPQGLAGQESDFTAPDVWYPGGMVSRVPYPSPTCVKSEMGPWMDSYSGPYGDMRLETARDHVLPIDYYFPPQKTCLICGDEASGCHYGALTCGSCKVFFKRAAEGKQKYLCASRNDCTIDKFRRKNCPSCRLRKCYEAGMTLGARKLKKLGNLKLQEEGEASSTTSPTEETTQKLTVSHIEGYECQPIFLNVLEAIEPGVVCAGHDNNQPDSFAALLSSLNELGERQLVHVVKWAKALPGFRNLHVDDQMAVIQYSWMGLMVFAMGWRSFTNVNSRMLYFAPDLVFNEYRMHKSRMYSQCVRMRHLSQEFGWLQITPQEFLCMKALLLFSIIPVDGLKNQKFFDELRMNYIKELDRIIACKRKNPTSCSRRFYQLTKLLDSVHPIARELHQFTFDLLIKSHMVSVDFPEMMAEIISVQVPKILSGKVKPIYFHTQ
Description: AR antagonist cell assay, MDA-MB453-MMTV clone 54-19 luciferase reporter. It counts as cell-based. On the procedure:
The compounds ability to antagonize the effects of androgen on the androgen receptor were determined in a whole cell assay as described immediately below.
This cell line is a stable transfected cell line with MDA-MB453 cell background (a human breast tumor cell line expressing androgen receptor). A MMTV minimal promoter containing ARE was first cloned in front of a firefly luciferase reporter gene. Then the cascade was cloned into transfection vector pUV120puro. Electroporation method was used for transfecting MDA-MB-453 cell. Puromycin resistant stable cell line was selected.
• 1. Cells are maintained in culture medium, splitting cells when they reach 80-90% confluence • 2. To test compounds, 10,000 cells/well are plated to opaque 96 cell culture plate in 100 ul/well plating medium, culture for overnight at 37° C. in cell culture incubator • 3. Carefully remove plating medium, then add 80 ul/well of pre-warmed assay medium, add 10 ul/well testing compound (final concentration at) 1000 nM, 200 nM, 40 nM, 8 nM, 1.6 nM, and 0.32 nM), incubate at 37° C. for 30 minutes • 4. Add 10 ul/well freshly prepared DHT (final concentration at 100 pM) to each well, incubate at 37° C. for 17 hr (overnight) • 5.
The results are reported as the mean of multiple tests as described below (the numbers of tests are indicated in the footnote). N.D. denotes that the compound was not tested.
(Reporter assays use an easily measured gene product as a stand-in for the process of interest.)

The target in assay [3] is T2, hAR (human androgen receptor) (Homo sapiens, UniProt P10275).
T2 construct: made in house; host or cells: baculovirus/Sf9 insect cells
T2 sequence (P10275 1-920): T1 sequence (P10275 1-920 Q868H) with H868Q
Description: Competitive binding analysis on baculovirus/Sf9 generated hAR extracts with 3H-DHT tracer. On the procedure:
The description below describes how the assay was carried out.
Competitive binding analysis was performed on baculovirus/Sf9 generated hAR extracts in the presence or absence of different concentrations of test agent and a fixed concentration of ^3H-dihydrotestosterone (^3H-DHT) as tracer. This binding assay method is a modification of a protocol previously described (Liao S., et. al. J. Steroid Biochem. 20:11-17 1984). Briefly, progressively decreasing concentrations of compounds are incubated in the presence of hAR extract (Chang et al. P.N.A.S. Vol. 89, pp. 5546-5950,1992), hydroxylapatite, and 1 nM ^3 H-DHT for one hour at 4° C. Subsequently, the binding reactions are washed three times to completely remove excess unbound ^3 H-DHT. hAR bound ^3H-DHT levels are determined in the presence of compounds (=i.e competitive binding) and compared to levels bound when no competitor is present (=i.e. maximum binding). Compound binding affinity to the hAR is expressed as the concentration of compound at which one half of the maximum binding is inhibited.

In assay [4] the test system is Male C3H/HeN mice. Description: Modified telogen conversion assay (hair growth, induction of anagen). Type of assay: in vivo. Particulars: test concentration of 3% w/v, topical. The text has this: It has been discovered that male C3H/HeN mice may be used in the telogen conversion assay, when evaluating anti-androgen test compounds. Thus, the model relates to a modification of the existing telogen conversion assay. Male C3H/HeN mice approximately 7 weeks old are utilized. These animals are also uniformly in telogen, like their female counterparts. However, once shaven, the androgens inherently present in these male mice inhibit the conversion of the hair follicles to the anagen phase. An anti-androgen will block this androgenic effect and the follicles will convert to anagen, like their female counterparts.
Male C3H/HeN mice, 6 to 7 weeks old (Charles River Laboratories, Raleigh, N.C.) were used for the study. Fur was clipped from the dorsal region of the mice prior to initiation of the study. Only mice with pink skin, a visual indication of the telogen phase, were selected for inclusion in the study.
The test compound was dissolved in a vehicle consisting of propylene glycol (30%) and ethanol (70%) to achieve a concentration of either 0.2% w/v, 0.5% w/v, 1% w/v or 3% w/v. The relevant dose was applied topically to the clipped dorsal region of the mice in one test group (7-10 mice) in a volume of 20 μl/cm^2. A third group of animals received only the vehicle to serve as a control. Treatments were applied twice daily for 4 weeks.
The treatment area was observed and graded every other day for signs of hair growth. The hair growth response was quantified by recording, for each animal, the day on which signs of hair growth first appeared over the treated area. The first sign of anagen was the darkening of skin color as melanocytes in the follicles started to synthesize melanin in preparation for the production of pigmented hairs. […] The percentage of mice showing signs of hair growth in both the treatment group and the control group is graphically depicted in FIG. 1.

[5] abbreviates: MDA-MB453-MMTV clone 54-19, 100 pM DHT, 17 hr; mean of multiple tests; read-out: AR Cell IC50.
[6] abbreviates: hAR extract, 1 nM 3H-DHT, one hour at 4° C., mean of multiple tests, read-out: AR Binding IC50.

Numbering of substitutions follows the chain as printed. Read-outs that look alike come from different tables or passages of the source.

In the case of `NCCCC(O)(P(=O)(O)O)P(=O)(O)O` [alendronate], in assay [1], the “increase in spinal BMD” value was ≤ 11%.
As to `CC(C)C(O)C(C)(C)COc1ccc(C#N)c(Cl)c1` (stereo not shown) [Example 27, 2-Chloro-4-(3-Hy-droxy-2,2,4-trimethyl-pentyloxy)-benzonitrile], the IC50 – broadly, the midpoint of a concentration-inhibition curve – in assay [2] (read-out: AR Cell IC50; MDA-MB453-MMTV clone 54-19, 100 pM DHT, 17 hr; mean of multiple tests) came to 0.04 nM; in assay [3], 63 nM. Also, the “rate of hair growth versus vehicle control” value in assay [4] was “did not exceed that of the vehicle control”.
On to `C[C@H](O)CCOc1ccc(C#N)c(C(F)(F)F)c1` [Example 8, (3S)-4-(3-Hydroxy-butoxy)-2-tri-fluoromethyl-benzonitrile], for which the results for the IC50 in assay [2] (setting [5]) and in assay [3] (setting [6]) were > 1000 nM and 213 nM, respectively.
Consider `C[C@H](O)C[C@H](C)Oc1ccc(C#N)c(C(F)(F)F)c1` [Example 16, (1S,3S)-4-(3-Hy-droxy-1-methyl-bu-toxy)-2-tri-fluoromethyl-benzonitrile], for which the IC50 is > 1000 nM in assay [2] (setting [5]) and 6 nM in assay [3].
For the molecule `CCCC(O)C(CC)COc1ccc(C#N)c(C(F)(F)F)c1` (stereo not shown) [Example 14, 4-(2-Ethyl-3-Hy-droxy-hexyl-oxy)-2-tri-fluoromethyl-benzonitrile], the results for the IC50 in assay [2] (setting [5]) and in assay [3] (setting [6]) were 794 nM and 260 nM, respectively.
The corresponding values for `CC(O)CCOc1ccc(C#N)c(C(F)(F)F)c1` (stereo not shown) [Example 7, 4-(3-Hydroxy-butoxy)-2-tri-fluoromethyl-benzonitrile] are > 1000 nM and 274 nM.
Take `CC(C)CCCC(O)COc1ccc(C#N)c(C(F)(F)F)c1` (stereo not shown) [Example 4, 4-(2-Hydroxy-6-methyl-heptyloxy)-2-tri-fluoromethyl-benzonitrile]: the IC50 in assay [2] (setting [5]) was > 1000 nM; in assay [3] (setting [6]), 442 nM.
Turning to `C=CCCCCC(O)COc1ccc(C#N)c(C(F)(F)F)c1` (stereo not shown) [Example 6, 4-(2-Hydroxy-oct-7-enyl-oxy)-2-tri-fluoromethyl-benzonitrile], the half-inhibitory concentration (IC50) in assay [2] (setting [5]) amounted to 662 nM; in assay [3] (setting [6]), 415 nM.
